Assay results taken from patent publication US20080280920A1, “Plasminogen Activator Inhibitor-1 Inhibitors” (priority 2005, published 2008).

Tests used:
TK-10 = assay: NCI anticancer screen, TK-10; assay type: cell-based, human; settings: TK-10, Renal, 48 h
HL-60(TB) = assay: NCI anticancer screen, HL-60(TB); assay type: cell-based, human; settings: Leukemia, 48 h
CAKI-1 = assay: NCI anticancer screen, CAKI-1; assay type: cell-based, human; settings: CAKI-1, Renal, 48 h
HCT-116 = assay: NCI anticancer screen, HCT-116; assay type: cell-based, human; settings: HCT-116, Colon, 48 h
SF-295 = assay: NCI anticancer screen, SF-295; assay type: cell-based, human; settings: SF-295, CNS, 48 h
wildtype human PAI-1 = biological target: T1, wildtype human PAI-1 (Homo sapiens, UniProt P05121); assay: PAI-1/uPA assay (residual uPA activity, fluorescent substrate SpectroFluor); assay type: biochemical
T1 construct: purchased Molecular Innovations Lot# HWT-804
T1 sequence (P05121 24-402): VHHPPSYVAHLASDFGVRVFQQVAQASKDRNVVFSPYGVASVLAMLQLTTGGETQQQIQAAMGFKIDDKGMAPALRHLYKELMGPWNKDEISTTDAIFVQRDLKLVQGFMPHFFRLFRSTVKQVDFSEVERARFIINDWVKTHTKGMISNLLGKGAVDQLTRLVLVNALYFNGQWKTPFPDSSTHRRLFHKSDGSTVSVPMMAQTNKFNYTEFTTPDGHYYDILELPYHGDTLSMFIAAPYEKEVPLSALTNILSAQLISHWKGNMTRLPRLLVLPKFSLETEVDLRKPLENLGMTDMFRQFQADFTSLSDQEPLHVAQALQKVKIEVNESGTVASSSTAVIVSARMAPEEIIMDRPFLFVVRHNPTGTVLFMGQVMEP
Experimental: Principle: The assay is based on using a fluorescent substrate (SpectroFluor) to measure residual uPA following inhibition of uPA by PAI-1. PAI-1 used in the assay is pre-treated in the presence of increasing concentrations of the lead compounds to screen for any inhibitory effects on PAI-1. Method: This assay was performed in 96 well microtiter plates. The concentrations of uPA (8 nM) and PAI-1 (6 nM) used in this assay were carefully optimized when using the fluorescent substrate, SpectroFluor™. Stock solutions (10 mM) of all lead compounds were prepared fresh in DMSO. […] 20 μl of 6 nM wildtype human PAI-1 (Molecular Innovations, Lot# HWT-804) was incubated for 15-20 minutes at room temperature in 96 well microtiter plates either with buffer, (50 mM HEPES, 150 mM NaCl, 0.05% Tween-20, 1% BSA, pH 6.6) or various concentrations (10 nM to 100 μM final concentration) of lead compounds in a total volume of 80 μl. A 20 μl aliquot of 8 nM uPA (HMW) solution in 0.05M Tris Buffered™ saline (TBS), pH 8.4 was added to each well and the mixture incubated for an additional 5 minutes at RT. The proteolytic reaction was initiated by addition of 50 μl of 0.1 mM SpectroFluor (Spectrozyme UK Fluorogenic substrate) to each well. The kinetics of the free chromophore, 7-amino-4-methylcoumarin (AMC) released in the course of peptide cleavage by the protease, uPA, was monitored for 30 minutes at 37° C. on a spectrofluorometric microplate reader with an excitation wavelength of 360 nm and emission wavelength of 440 nm. Kinetic data regarding the rate of substrate cleavage by uPA was acquired with Softmax PrO™ software. The difference between the residual uPA activity in the presence or absence of untreated PAI-1, at the molar ratio used, was considered as the “total” PAI-1 activity (100%). The inhibition of uPA by PAI-1 treated with lead compounds was expressed as a percentage of the initial activity of untreated PAI-1. Controls were performed during each experiment to ensure the nearly complete inhibition of uPA by untreated PAI-1 and also to ensure the absence of any direct effect of the lead compounds on uPA alone or on SpectroFluor.

SW-620 = assay: NCI anticancer screen, SW-620; assay type: cell-based, human; settings: SW-620, Colon, 48 h
BT-549 = assay: NCI anticancer screen, BT-549; assay type: cell-based, human; settings: BT-549, Breast, 48 h
SNB-19 = assay: NCI anticancer screen, SNB-19; assay type: cell-based, human; settings: SNB-19, CNS, 48 h
SR = assay: NCI anticancer screen, SR; assay type: cell-based, human; settings: Leukemia, 48 h
HS 578T = assay: NCI anticancer screen, HS 578T; assay type: cell-based, human; settings: Breast, 48 h
SK-MEL-5 = assay: NCI anticancer screen, SK-MEL-5; assay type: cell-based, human; settings: SK-MEL-5, Melanoma, 48 h
MALME-3M = assay: NCI anticancer screen, MALME-3M; assay type: cell-based, human; settings: Melanoma, 48 h
EKVX = assay: NCI anticancer screen, EKVX; assay type: cell-based, human; settings: Non-Small Cell Lung, 48 h
NCI/ADR-RES = assay: NCI anticancer screen, NCI/ADR-RES; assay type: cell-based, human; settings: Breast, 48 h
NCI-H226 = assay: NCI anticancer screen, NCI-H226; assay type: cell-based, human; settings: NCI-H226, Non-Small Cell Lung, 48 h
HCC-2998 = assay: NCI anticancer screen, HCC-2998; assay type: cell-based, human; settings: HCC-2998, Colon, 48 h
NCI-H460 = assay: NCI anticancer screen, NCI-H460; assay type: cell-based, human; settings: NCI-H460, Non-Small Cell Lung, 48 h
KM12 = assay: NCI anticancer screen, KM12; assay type: cell-based, human; settings: KM12, Colon, 48 h
SNB-75 = assay: NCI anticancer screen, SNB-75; assay type: cell-based, human; settings: SNB-75, CNS, 48 h
MCF7 = assay: NCI anticancer screen, MCF7; assay type: cell-based, human; settings: MCF7, Breast, 48 h
SF-268 = assay: NCI anticancer screen, SF-268; assay type: cell-based, human; settings: SF-268, CNS, 48 h
U251 = assay: NCI anticancer screen, U251; assay type: cell-based, human; settings: U251, CNS, 48 h
[1] = Homo sapiens, read-out: LC50 (the source's name)

CC(C)(C)OC(=O)Nc1ccc(O)c(C(=O)NCCOC(=O)NCCNC(=O)c2cc(OCc3ccccc3)ccc2OCc2ccccc2)c1 [Compound Q012052, 2-[5-(BOC-amino)-2-hydroxybenzoylamino]ethyl 2-[2,5-bis-(benzyl-oxy)benzoylamino]ethylcarbamate]
GI50 (TK-10; Homo sapiens): > 100 µM | GI50 (HL-60(TB); Homo sapiens): > 100 µM | GI50 (CAKI-1; Homo sapiens): 98 µM | GI50 (HCT-116; Homo sapiens): > 100 µM | GI50 (SF-295; Homo sapiens): 21.9 µM | Percent PAI-1 inhibition (wildtype human PAI-1; at the concentration given, percent of activity of untreated PAI-1): 45 | Conc. of compound required for PAI-1 inhibition (wildtype human PAI-1; concentration giving the percent inhibition, 6 nM PAI-1, 8 nM uPA): 50 nM | GI50 (SW-620; Homo sapiens): > 100 µM | GI50 (BT-549; Homo sapiens): 80.1 µM | GI50 (SNB-19; Homo sapiens): > 100 µM | GI50 (SR; Homo sapiens): 89.8 µM | GI50 (HS 578T; Homo sapiens): > 100 µM | GI50 (SK-MEL-5; Homo sapiens): > 100 µM | GI50 (MALME-3M; Homo sapiens): > 100 µM | GI50 (EKVX; Homo sapiens): 35.1 µM | GI50 (NCI/ADR-RES; Homo sapiens): > 100 µM | GI50 (NCI-H226; Homo sapiens): > 100 µM | GI50 (HCC-2998; Homo sapiens): > 100 µM | GI50 (NCI-H460; Homo sapiens): > 100 µM | GI50 (KM12; Homo sapiens): > 100 µM | GI50 (SNB-75; Homo sapiens): 68.9 µM | GI50 (MCF7; Homo sapiens): 17.1 µM | GI50 (SF-268; Homo sapiens): > 100 µM | GI50 (U251; Homo sapiens, U-251): > 100 µM

COc1cc(CNCC2CCN(C(=O)OC(C)(C)C)CC2)cc(CN2CCN(c3ccccn3)CC2)c1O [Compound Q012132, 2-Methoxy-4-({[(N-t-butyloxycarbonylpiperidin-4-yl)methyl]amino}methyl)-6-[(4-pyridin-2-ylpiperazin-1-yl)methyl]phenol]
GI50 (TK-10; Homo sapiens): 19.5 µM | CC50 (TK-10; [1]): 86.5 µM | TGI (TK-10): 41.0 µM | GI50 (HL-60(TB); Homo sapiens): 14.8 µM | CC50 (HL-60(TB); [1]): 72.6 µM | TGI (HL-60(TB)): 32.8 µM | TGI (CAKI-1): 51.7 µM | GI50 (CAKI-1; Homo sapiens): 22.8 µM | CC50 (CAKI-1; [1]): > 100 µM | TGI (HCT-116): 22.6 µM | GI50 (HCT-116; Homo sapiens): 10.8 µM | LC50 (50% lethal concentration) (HCT-116; Homo sapiens): 47.6 µM | GI50 (SF-295; Homo sapiens): 19.3 µM | CC50 (SF-295; [1]): 89 µM | TGI (SF-295): 41.4 µM | Conc. of compound required for PAI-1 inhibition (result in words) (wildtype human PAI-1; within the concentration range tested): No inhibition | GI50 (SW-620; Homo sapiens): 16.1 µM | CC50 (SW-620; [1]): 59.1 µM | TGI (SW-620): 30.8 µM | TGI (BT-549): 28.9 µM | GI50 (BT-549; Homo sapiens): 14.6 µM | CC50 (BT-549; [1]): 57.1 µM | GI50 (SNB-19; Homo sapiens): 41.8 µM | CC50 (SNB-19; [1]): > 100 µM | TGI (SNB-19): >100 µM | GI50 (SR; Homo sapiens): 11 µM | CC50 (SR; [1]): 84.4 µM | TGI (SR): 30.5 µM | TGI (HS 578T): 38.2 µM | GI50 (HS 578T; Homo sapiens): 16.4 µM | CC50 (HS 578T; [1]): 88.6 µM | GI50 (SK-MEL-5; Homo sapiens): 13.1 µM | CC50 (SK-MEL-5; [1]): 51.5 µM | TGI (SK-MEL-5): 26.0 µM | GI50 (MALME-3M; Homo sapiens): 15.7 µM | CC50 (MALME-3M; [1]): 65.5 µM | TGI (MALME-3M): 32.0 µM | GI50 (EKVX; Homo sapiens): 91.2 µM | CC50 (EKVX; [1]): > 100 µM | TGI (EKVX): >100 µM | TGI (NCI/ADR-RES): 79.2 µM | GI50 (NCI/ADR-RES; Homo sapiens): 21.4 µM | CC50 (NCI/ADR-RES; [1]): > 100 µM | GI50 (NCI-H226; Homo sapiens): 65.5 µM | LC50 (concentration giving 50% net cell kill) (NCI-H226; Homo sapiens): > 100 µM | TGI (NCI-H226): >100 µM | TGI (HCC-2998): 28.9 µM | GI50 (HCC-2998; Homo sapiens): 14.5 µM | LC50 (HCC-2998; Homo sapiens): 57.7 µM | GI50 (NCI-H460; Homo sapiens): 21.3 µM | CC50 (NCI-H460; [1]): 81.7 µM | TGI (NCI-H460): 41.7 µM | GI50 (KM12; Homo sapiens): 31.6 µM | CC50 (KM12; [1]): > 100 µM | TGI (KM12): >100 µM | GI50 (SNB-75; Homo sapiens): 22.3 µM | LC50 (concentration killing 50% of cells) (SNB-75; Homo sapiens): > 100 µM | TGI (SNB-75): 49.8 µM | GI50 (MCF7; Homo sapiens): 18.6 µM | CC50 (MCF7; [1]): 73 µM | TGI (MCF7): 36.9 µM | GI50 (SF-268; Homo sapiens): 18.5 µM | LC50 (SF-268; Homo sapiens): > 100 µM | TGI (SF-268): 44.1 µM | GI50 (U251; Homo sapiens, U-251): 15.1 µM | CC50 (U251; Homo sapiens, U-251, read-out: LC50 (the source's name)): 55.8 µM | TGI (U251): 29.1 µM
